Source: patent publication US10208078B1 (SHAANXI UNIVERSITY OF SCIENCE AND TECHNOLOGY, priority 2018, dated 2019)

Experiment: DPPH radical scavenging activity assay
Type: biochemical
Set-up: Scavenging activity (%): unit of the concentration uncertain
Conditions: for Scavenging activity (%): 0.2 mmol/L DPPH, 30 minutes room temperature in dark, absorbance at 517 nm
Text: 2,2-Diphenyl-1-picryl hydrazyl (DPPH) is an organic compound composed of a stable organic radical. In the DPPH molecule, due to the presence of multiple electron-withdrawing —NO2 and large π bonds of the benzene ring, nitrogen free radical is stabilized. Its methanol solution is purple and has a maximum absorption peak at 517 nm. After the addition of an antioxidant, DPPH captures an electron to be paired with the free electron, and the purple fades and turns into a yellow substance. The absorption at 517 nm disappears, and the degree of fading is quantitatively related to the number of electrons it captures. Based on this principle, a spectrophotometer is used to detect the change of the absorbance of the DPPH radical and the sample solution, and the ability of the sample to provide hydrogen atoms and scavenge free radicals can be measured.
Preparation of DPPH solution: measuring exact amount of 2,2-diphenyl-1-picryl hydrazyl (DPPH) and dissolving in methanol to prepare a 0.2 mmol/L DPPH solution, stored at 0° C. in dark.
Measuring the scavenging activity of the sample solutions:
2 mL of the sample solutions at each concentration gradient was taken, 2 mL 0.2 mmol/L DPPH solution was added, the mixture was mixed and reacted at room temperature in dark for 30 minutes, and methanol was then added to adjust final volume. The absorbance Ai was measured at 517 nm. 2 mL control solution and 2 mL methanol were mixed, and the absorbance Aj was measured. 2 mL DPPH solution and 2 mL methanol were mixed, and the absorbance A0 was measured. The scavenging activity of the sample solution and control solutions is calculated according to the following calculation formula. Scavenging activity (%)=100×[1−(Ai−Aj)/A0]
In FIG. 1, the X axis represents the concentrations (PPM) of the sample and control solutions, and the Y axis represents the scavenging activity.

[1] = concentration 6.89 (unit uncertain)
[2] = concentration 68.9 (unit uncertain)
[3] = concentration 172 (unit uncertain)
[4] = concentration 689 (unit uncertain)
[5] = concentration 1724 (unit uncertain)
[6] = concentration 6890 (unit uncertain)
[7] = concentration 8620 (unit uncertain)

SMILES | Scavenging activity (%) [1] | Scavenging activity (%) [2] | Scavenging activity (%) [3] | Scavenging activity (%) [4] | Scavenging activity (%) [5] | Scavenging activity (%) [6] | Scavenging activity (%) [7] | free radical clearance rate (achieved at a lower concentration than aesculin, thiodipropionic acid and their mixture)
O=C1O[C@H]([C@@H](O)CO)C(O)=C1O [Vitamin C, vitamin C] | 53.40% | 96.15% | 96.28% | 96.79% | 96.79% | 97.18% | 97.43% | 
O=C(O)CCSCCC(=O)O [Thiodipropionic acid, 3,3′-thiodipropionic acid] | 1.13% | 3.84% | 4.64% | 5.20% | 5.43% | 6.33% | 6.57% | 
O=C(CCSCCC(=O)OCC1OC(Oc2cc3ccc(=O)oc3cc2O)C(O)C(O)C1O)OCC1OC(Oc2cc3ccc(=O)oc3cc2O)C(O)C(O)C1O (stereo not shown) [Aesculin thiodipropionic acid ester, aesculin thiodipropionic acid ester] | 7.60% | 37.08% | 58.91% | 77.78% | 90.95% | 94.83% | 96.12% | more than 90%
